The values below come from patent publication US4868190A, “N-pyridinyl-9H-carbazol-9-amines” (Hoechst-Roussel Pharmaceuticals, Inc., priority 1988, dated 1989).

A word on the ED50: it is the midpoint of the dose-response relation.

Test [1] concerns 2-phenyl-1,4-benzoquinone-induced writhing. The experiment in a line: 2-phenyl-1,4-benzoquinone-induced writhing (PQW) test in mice. The note with it: Mus musculus, sc, read-out: PQW ED50. It is filed as in vivo. An excerpt: Compounds I of the present invention are useful as analgesic agents due to their ability to alleviate pain in mammals. […] Exptl. Biol. Med., 95, 729 (1957)] and in modified Haffner's analgesia.

For test [2], the system named is sensitivity of mice to pressure stress (artery clip on tail). The experiment in a line: Modified Haffner's analgesia (artery clip on tail). In kind it is in vivo, mice (male, Charles River, CD-1). The note with it: Mus musculus, sc, read-out: Modified Haffner's Analgesia ED50. An excerpt:
The latter assay is used to evaluate analgesic activity by measuring drug-induced changes in the sensitivty of mice to pressure stress by placing an artery clip (21/2 inches long) on their tail. The procedure used is a modification of the test developed by Haffner, Dtsch. Med. Wschr. 55, 731 (1929), and it is described below:
Male mice (Charles River, CD-1) from 18-30 grams are used for the test. An artery clip is applied to the root of the tail of a mouse (approximately 1/2 inch from the body) to induce pain. The animals quickly responds to this noxious stimuli by biting the clip or the location of the clip. This reaction time, the interval between stimulus onset and response, is recorded on 1/10 second increments by a stop watch.
For a time response, the screening dose (25 mg/kg) is administered subcutaneously (10 ml/kg) to the animal receiving food and water ad libitum before testing. Animals receiving the compound orally are fasted 18-24 hours before drug administration. Drug to be tested is prepared with distilled water and if insoluble, one drop of a surfactant is added.
Twenty-eight animals (seven/group) are administered the drug 15, 30, 45 and 60 minutes prior to testing.
The cut-off time (CO) is determined by taking the (x) average+3 standard (SD) deviation of the combined response latencies of the control mice in all time periods.
Any reaction time, in subsequent drug tests, which is greater than the CO (for the same time period) therefore exceeds 99% of normal Gaussian distribution and is called "positive response" indicative of analgesic activity. A time response indicates the period of greatest analgesic effect after dosing. The ED50 is determined at the peak time of drug activity. A minimum of three dose groups are used. ED50 's are calcualted using computer analysis.

For test [3], the system named is scopolamine induced memory deficit. Nature of the test: Dark Avoidance Assay (scopolamine-induced memory deficit). It is filed as in vivo. The note with it: mice, 24 hours. How it is done:
In this assay mice are tested for their ability to remember an unpleasant stimulus for a period of 24 hours. A mouse is placed in a chamber that contains a dark compartment; a strong incandescent light drives it to the dark compartment, where an electric shock is administered through metal plates on the floor. The animal is removed from the testing apparatus and tested again, 24 hours later, for the ability to remember the electric shock. If scopolamine, an anticholinergic that is known to cause memory impairment, is administered before an animal's initial exposure to the test chamber, the animal re-enters the dark compartment shortly after being placed in the test chamber 24 hours later.

Test [4] deals with tetrabenazine-induced ptosis. The experiment in a line: Prevention of Tetrabenazine-Induced Ptosis in Mice. The note with it: Mus musculus, po, read-out: Antidepressant activity ED50. It is filed as in vivo, mice (male). An excerpt: The test method and results are described below.
Tetrabenazine (TBZ) induces behavioral depression with concomitant ptosis in mice similar to reserpine. Antidepressant compounds, both monoamineoxidase inhibitors and tricyclics, are known to prevent or antagonize these effects and the degree of antagonism correlates with clinical efficacy. The prevention of […] ptosis in mice is used as a preliminary screen for possible antidepressant activity. The method used in this invention is as follows:
Male mice weighing 20 to 30 grams are used in test groups of five subjects. All compounds are dissolved or suspended with a suitable surfactant in distilled water and administered in volumes of 10 ml/kg of body weight. TBZ solution is made from the methanesulfonate salt and the concentration is adjusted to enable administration of 60 mg/kg of base by intraperitoneal (i.p.) injection.
The pretreatment time is measured from the time of dosing to observation. Therefore, when a 30-minute pretreat is utilized, drug and TBZ are given simultaneously. A control group received solvent and TBZ at intervals identical to drug group. For a primary screen, the drug is administered i.p. and a group size of five is utilized. Eight animals/group are used for a dose range.
The total score for each group of five in a primary screen will, therefore, be from 0 to 20 and these scores are used as indications of drug activity.
The vehicle control group score is used as a determinant of the validity of each test. […] The calculation of percent inhibition of ptosis is: [formula]

Test [5] concerns supramaximal electroshock (extensor tonus). The experiment in a line: Anticonvulsant activity, supramaximal electroshock (SES) assay. It is filed as in vivo. The note with it: ip; male mouse, at peak activity time. How it is done: Compounds I of the present invention are also useful as anticonvulsant agents due to their anticonvulsant activity in mammals. Anticonvulsant activity is measured in the male mouse using the supramaximal electroshock (SES) assay described in Arch. Int. Pharmacodyn. 92:97-107, 1952. In this procedure groups of animals are used. Drugs are prepared using distilled water and, if insoluble, a surfactant is added. Control animals receive vehicle. Drugs are routinely administered intraperitoneally (i.p.). The dosage volume is 10 ml/kg. A primary screen is given a 30 minute pretreat. The animal's eyes are placed across the output terminals of an A.C. shocker that delivers 206 volts rms for 300 msec. Electrode paste coats the animals eyes at the point of contact with the terminals. […] Protection is expressed as normalized percent inhibition relative to vehicle control.
A time response is carried out using six animals/group. Animals are tested at 30, 60 and 120 minutes postdrug. Additional time periods are tested if indicated by previous tests. When the peak activity time has been determined, a dose response is initiated using 10 animals/group at that time period. The ED50 and 95% confidence interval are calculated by computer probit analysis.
Background: Protection in the maximal electroshock model is a classic sign of anticonvulsant action.

Where [6] appears, read: mice, s.c., at peak time of drug activity.

Like-named read-outs stand apart in the source and are kept apart here.

With `Brc1ccc2c(c1)c1ccccc1n2Nc1ccncc1.O=C(O)/C=C\C(=O)O` [3-Bromo-N-(4-pyridinyl)-9H-carbazol-9-amine maleate], the ED50 was found to be 1.2 mg/kg in test [1] (mice, s.c.); 1.1 mg/kg in test [2] (setting [6]); 7.6 mg/kg in test [4] (mice, p.o., TBZ 60 mg/kg i.p.). Also, the “% of animals with scopolamine induced memory deficit reversal” value (“% of animals” below) in test [3] (dose 0.31 mg/kg body weight) was 33%.
Regarding `O=C1CC2(CCCC2)CC(=O)N1CCCCN(c1ccncc1)n1c2ccccc2c2ccccc21` [8-[4-(9H-carbazol-9-yl-4-pyridinylamino)butyl]-8-azaspiro[4.5]decane-7,9-dione], in test [3] (dose 5.0 mg/kg body weight), the “% of animals” value was 60%.
In the case of `CNC1=Nc2ccc(Cl)cc2C(c2ccccc2)=[N+]([O-])C1` [Chlordiazepoxide, reference compound], the ED50 in test [5] turned out to be 8 mg/kg.
With `CNCCCN1c2ccccc2CCc2ccccc21` [Desipramine, reference compound], in test [4], the ED50 was determined as 2.3 mg/kg.
For the compound `C=CCN(c1ccncc1)n1c2ccccc2c2ccccc21.O=C(O)/C=C\C(=O)O` [N-(2-Propenyl)-N-(4-pyridinyl)-9H-carbazol-9-amine maleate], the ED50 in test [1] (mice, s.c.) was determined as 1 mg/kg; in test [2] (setting [6]) it was 1.2 mg/kg; in test [4] (mice, p.o., TBZ 60 mg/kg i.p.), 3.7 mg/kg.
`Cl.Fc1cnccc1Nn1c2ccccc2c2ccccc21` [N-(3-Fluoro-4-pyridinyl)-9H-carbazol-9-amine hydrochloride]: the ED50 in test [1] (mice, s.c.) came to 1.3 mg/kg; in test [2] (setting [6]) it was 0.7 mg/kg.
On to `CCCN(c1ccncc1F)n1c2ccccc2c2ccccc21` [N-(3-Fluoro-4-pyridinyl)-N-propyl-9H-carbazol-9-amine], for which the “% of animals” value in test [3] (dose 1.25 mg/kg body weight) amounted to 27%.
On to `O=C(O)/C=C\C(=O)O.c1ccc2c(c1)c1ccccc1n2Nc1ccncc1` [N-(4-Pyridinyl)-9H-carbazol-9-amine maleate], for which the ED50 is 0.5 mg/kg in test [1] (mice, s.c.); 0.4 mg/kg in test [2] (setting [6]); 23.4 mg/kg in test [5]; 2.3 mg/kg in test [4] (mice, p.o., TBZ 60 mg/kg i.p.).
Regarding `CCCCN(c1ccncc1)n1c2ccccc2c2ccccc21.Cl` [N-(Butyl)-N-(4-pyridinyl)-9H-carbazol-9-amine hydrochloride], the “% of animals” value in test [3] (dose 0.63 mg/kg body weight) is 33%. Further, the ED50 in test [4] (mice, p.o., TBZ 60 mg/kg i.p.) worked out at 5.2 mg/kg.
For the compound `CCCN(c1ccncc1)n1c2ccccc2c2ccccc21.O=C(O)/C=C\C(=O)O` [N-(Propyl)-N-(4-pyridinyl)-9H-carbazol-9-amine maleate], the ED50 in test [1] (mice, s.c.) amounted to 4.3 mg/kg; in test [2] (setting [6]), 9.8 mg/kg; in test [5] it was 16.9 mg/kg; in test [4] (mice, p.o., TBZ 60 mg/kg i.p.), 1.5 mg/kg. Further, the “% of animals” value in test [3] (dose 2.5 mg/kg body weight) turned out to be 33%.
In the case of `CCN(c1ccncc1)n1c2ccccc2c2ccccc21.O=C(O)/C=C\C(=O)O` [N-Ethyl-N-(4-pyridinyl)-9H-carbazol-9-amine maleate], the ED50 was 1.1 mg/kg in test [1] (mice, s.c.); 4.3 mg/kg in test [2] (setting [6]); 6.4 mg/kg in test [5]; 2.2 mg/kg in test [4] (mice, p.o., TBZ 60 mg/kg i.p.).
For the compound `CN(c1ccncc1)n1c2ccccc2c2ccccc21.O=C(O)/C=C\C(=O)O` [N-Methyl-N-(4-pyridinyl)-9H-carbazol-9-amine maleate], the ED50 is 0.1 mg/kg in test [1] (mice, s.c.); 0.19 mg/kg in test [2] (setting [6]); 1.5 mg/kg in test [4] (mice, p.o., TBZ 60 mg/kg i.p.).
`CC(C)=CCN1CCC2(C)c3cc(O)ccc3CC1C2C` (stereo not shown) [Pentazocin, reference compound]: the median effective dose (ED50) in test [1] was 1.3 mg/kg; in test [2] it was 3.9 mg/kg.
In the case of `CNC(=O)Oc1ccc2c(c1)[C@]1(C)CCN(C)[C@@H]1N2C` [Physostigmine, reference compound], the “% of animals” value in test [3] (dose 0.31 mg/kg body weight) amounted to 20%.
